Common to all, as to assay type: cell-based
For assay [1], the system named is A549 cells. Kind of assay: Cell growth, CellTiter-Glo Luminescent Cell Viability Assay, A549. To be noted: Homo sapiens, 72 h incubation. Put shortly: (§1)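 K562, A549 and HCT-116 cells in exponential growth exposed to inhibitors at varying concentrations for 72 h. Viability read as ATP luminescence (CellTiter-Glo, 10 min at RT after lysis); IC50 from dose-response, reported as ranges.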
Background: ATP-based viability assays read luminescence as a measure of living cells.

The subject of assay [2] is K562 cells. Put plainly: Cell growth, CellTiter-Glo Luminescent Cell Viability Assay, K562. Particulars: Homo sapiens, 72 h incubation. The method in brief: as §1
Assay [3] has as its system HCT-116 cells. Put plainly: Cell growth, CellTiter-Glo Luminescent Cell Viability Assay, HCT-116. Particulars: Homo sapiens, 72 h incubation, read-out: IC50 HCT116. The method in brief: as §1

Structures can show the parent of a compound that is named as a salt. Bounds are passed on as bounds.

On to `CS(=O)(=O)c1ccc(N2CCN(C(=O)/C=C/c3cccc(/C=C/C(=O)NO)n3)CC2)cc1` [Example 51, (E)-N-Hydroxy-3-(6-{(E)-3-[4-(4-methanesulfonyl-phenyl)-piperazin-1-yl]-3-oxo-propenyl}-pyridin-2-yl)-acrylamide hydrochloride], for which the half-maximal inhibitory concentration (IC50) in assay [1], in assay [2] and in assay [3] was ≥ 3000 nM throughout.

For `O=C(/C=C/c1cccc(/C=C/C(=O)N2CCCc3ccccc32)n1)NO` [Example 55, (E)-3-{6-[(E)-3-(3,4-Dihydro-2H-quinolin-1-yl)-3-oxo-propenyl]-pyridin-2-yl}-N-hydroxy-acrylamide trifluoroacetate], the concentration for half-maximal inhibition (IC50) in assay [1], in assay [2] and in assay [3] was ≤ 1000 nM each time.

On to `O=C(/C=C/c1cccc(/C=C/C(=O)N2CCc3c([nH]c4ccccc34)C2)n1)NO` [Example 56, (E)-N-Hydroxy-3-{6-[(E)-3-oxo-3-(1,3,4,9-tetrahydro-beta-carbolin-2-yl)-propenyl]-pyridin-2-yl}-acrylamide hydrochloride], for which the figures for the half-maximal inhibitory concentration (IC50) in assay [1], in assay [2] and in assay [3] were ≥ 3000 nM, 1000 to 3000 nM and 1000 to 3000 nM, respectively.

As to `O=C(/C=C/c1cccc(/C=C/C(=O)N2CCC(c3nc4ccccc4o3)CC2)n1)NO` [Example 57, (E)-3-{6-[(E)-3-(4-Benzooxazol-2-yl-piperidin-1-yl)-3-oxo-propenyl]-pyridin-2-yl}-N-hydroxy-acrylamide hydrochloride], the half-maximal inhibitory concentration (IC50) (usually the concentration that inhibits the measured activity by half) is ≥ 3000 nM in assay [1], ≥ 3000 nM in assay [2] and 1000 to 3000 nM in assay [3].

Turning to `O=C(/C=C/c1cccc(/C=C/C(=O)N2CCc3ccccc3C2)n1)NO` [Example 58, (E)-3-{6-[(E)-3-(3,4-Dihydro-1H-isoquinolin-2-yl)-3-oxo-propenyl]-pyridin-2-yl}-N-hydroxy-acrylamide hydrochloride], the IC50 is 1000 to 3000 nM in assay [1], ≤ 1000 nM in assay [2] and ≤ 1000 nM in assay [3].

On to `O=C(/C=C/c1cccc(/C=C/C(=O)N2CCC(c3nc4ccccc4[nH]3)CC2)n1)NO` [Example 59, (E)-3-(6-{(E)-3-[4-(1H-Benzoimidazol-2-yl)-piperidin-1-yl]-3-oxo-propenyl}-pyridin-2-yl)-N-hydroxy-acrylamide hydrochloride], for which the half-inhibitory concentration (IC50) in assay [1], in assay [2] and in assay [3] was ≥ 3000 nM throughout.

As for `O=C(/C=C/c1cccc(/C=C/C(=O)N2CCC3(C=Cc4ccccc43)CC2)n1)NO` [Example 60, (E)-3-(6-{(E)-3-[Spiro[indene-1,4′-piperidine-1′-yl]-3-oxo-propenyl}-pyridin-2-yl)-N-hydroxy-acrylamide hydrochloride], the concentration for half-maximal inhibition (IC50) in assay [1] is ≥ 3000 nM; in assay [2], ≤ 1000 nM; in assay [3], 1000 to 3000 nM.

As to `O=C(/C=C/c1cccc(/C=C/C(=O)N2CCC3(CC2)OCc2ccccc23)n1)NO` [Example 61, (E)-3-(6-{(E)-3-[Spiro[2-benzofuran-1,4′-piperidine-1′-yl]-3-oxo-propenyl}-pyridin-2-yl)-N-hydroxy-acrylamide hydrochloride], the IC50 was 1000 to 3000 nM in assay [1], ≤ 1000 nM in assay [2] and ≤ 1000 nM in assay [3].

`O=C(/C=C/c1cccc(/C=C/C(=O)N2CCC(n3c(-c4ccccc4)nc4ccccc43)CC2)n1)NO` [Example 62, (E)-N-Hydroxy-3-(6-{(E)-3-oxo-3-[4-(2-phenyl-benzoimidazol-1-yl)-piperidin-1-yl]-propenyl}-pyridin-2-yl)-acrylamide hydrochloride]: the 50% inhibitory concentration (IC50) in assay [1], in assay [2] and in assay [3] was ≥ 3000 nM each time.

Regarding `O=C(/C=C/c1cccc(/C=C/C(=O)N2CCC[C@@H](c3ccccc3)C2)n1)NO` [Example 73, (E)-N-Hydroxy-3-{6-[(E)-3-oxo-3-((S)-3-phenyl-piperidin-1-yl)-propenyl]-pyridin-2-yl}-acrylamide hydrochloride], the IC50 in assay [1], in assay [2] and in assay [3] was ≤ 1000 nM each time.

On to `O=C(/C=C/c1cccc(/C=C/C(=O)N2CCCC(c3ccccc3)C2)n1)NO` (stereo not drawn) [Example 74, (E)-N-Hydroxy-3-{6-[(E)-3-oxo-3-((12)-3-phenyl-piperidin-1-yl)-propenyl]-pyridin-2-yl}-acrylamide hydrochloride], for which the IC50 in assay [1], in assay [2] and in assay [3] was ≤ 1000 nM each time.

Take `O=C(/C=C/c1cccc(/C=C/C(=O)N2CC=C(c3ccccc3)CC2)c1)NO` [Example 75, (E)-N-Hydroxy-3-{3-[(E)-3-oxo-3-(4-phenyl-3,6-dihydro-2H-pyridin-1-yl)-propenyl]-phenyl}-acrylamide]: the IC50 was 1000 to 3000 nM in assay [1], 1000 to 3000 nM in assay [2] and ≤ 1000 nM in assay [3].

With `O=C(/C=C/c1cccc(/C=C/C(=O)N2CCN(c3ccc(Cl)cc3)CC2)c1)NO` [Example 76, (E)-3-(3-{(E)-3-[4-(4-Chloro-phenyl)-piperazin-1-yl]-3-oxo-propenyl}-phenyl)-N-hydroxy-acrylamide hydrochloride], the IC50 in assay [1], in assay [2] and in assay [3] was ≤ 1000 nM in each case.

For `O=C(/C=C/c1cccc(/C=C/C(=O)N2CCC(C(=O)c3ccccc3)CC2)c1)NO` [Example 77, (E)-3-{3-[(E)-3-(4-Benzoyl-piperidin-1-yl)-3-oxo-propenyl]phenyl}-N-hydroxy-acrylamide], the 50% inhibitory concentration (IC50) in assay [1] is ≥ 3000 nM; in assay [2], 1000 to 3000 nM; in assay [3], 1000 to 3000 nM.

For the molecule `O=C(/C=C/c1cccc(/C=C/C(=O)N2CCC[C@H](c3ccccc3)C2)c1)NO` [Example 81, (E)-N-Hydroxy-3-{3-[(E)-3-oxo-3-((R)-3-phenyl-piperidin-1-yl)-propenyl]-phenyl}acrylamide], the half-maximal inhibitory concentration (IC50) in assay [1], in assay [2] and in assay [3] was ≥ 3000 nM in each case.

On to `O=C(/C=C/c1cccc(/C=C/C(=O)N2CCC[C@@H](c3ccccc3)C2)c1)NO` [Example 82, (E)-N-Hydroxy-3-{3-[(E)-3-oxo-3-((S)-3-phenyl-piperidin-1-yl)-propenyl]-phenyl}-acrylamide], for which the IC50 in assay [1], in assay [2] and in assay [3] was ≥ 3000 nM throughout.

Turning to `O=C(/C=C/c1cccc(/C=C/C(=O)N2CCN(c3cccc(Cl)c3)CC2)c1)NO` [Example 85, (E)-3-(3-{(E)-3-[4-(3-Chloro-phenyl)-piperazin-1-yl]-3-oxo-propenyl}-phenyl)-N-hydroxy-acrylamide hydrochloride], the results for the concentration for half-maximal inhibition (IC50) in assay [1], in assay [2] and in assay [3] were ≥ 3000 nM, 1000 to 3000 nM and 1000 to 3000 nM, respectively.

As to `O=C(/C=C/c1cccc(/C=C/C(=O)N2CCC(Cc3ccccc3)CC2)c1)NO` [Example 86, (E)-3-{3-[(E)-3-(4-Benzyl-piperidin-1-yl)-3-oxo-propenyl]-phenyl}-N-hydroxy-acrylamide], the IC50 in assay [1], in assay [2] and in assay [3] was ≥ 3000 nM throughout.

`O=C(/C=C/c1cccc(/C=C/C(=O)N2CCN(c3ccccc3Cl)CC2)c1)NO` [Example 87, (E)-3-(3-{(E)-3-[4-(2-Chloro-phenyl)-piperazin-1-yl]-3-oxo-propenyl}-phenyl)-N-hydroxy-acrylamide hydrochloride]: the half-inhibitory concentration (IC50) in assay [1] was ≥ 3000 nM; in assay [2] it was 1000 to 3000 nM; in assay [3] it was 1000 to 3000 nM.

With `N#Cc1ccc(N2CCN(C(=O)/C=C/c3cccc(/C=C/C(=O)NO)c3)CC2)cc1` [Example 88, (E)-3-(3-{(E)-3-[4-(4-Cyano-phenyl)-piperazin-1-yl]-3-oxo-propenyl}-phenyl)-N-hydroxy-acrylamide hydrochloride], the IC50 in assay [1] was 1000 to 3000 nM; in assay [2], ≤ 1000 nM; in assay [3], ≤ 1000 nM.

Take `O=C(/C=C/c1cccc(/C=C/C(=O)N2CCC=C(c3ccccc3)C2)c1)NO` [Example 89, (E)-N-Hydroxy-3-{3-[(E)-3-oxo-3-(5-phenyl-3,6-dihydro-2H-pyridin-1-yl)-propenyl]-phenyl}-acrylamide]: the concentration for half-maximal inhibition (IC50) in assay [1], in assay [2] and in assay [3] was ≥ 3000 nM in each case.

On to `O=C(/C=C/c1cccc(/C=C/C(=O)N2CCNC(c3ccccc3)C2)c1)NO` (stereo not drawn) [Example 90, (E)-N-Hydroxy-3-{3-[(E)-3-oxo-3-(3-phenyl-piperazin-1-yl)-propenyl]phenyl}-acrylamide hydrochloride], for which the 50% inhibitory concentration (IC50) was ≥ 3000 nM in assay [1], 1000 to 3000 nM in assay [2] and 1000 to 3000 nM in assay [3].

Turning to `O=C(/C=C/c1cccc(/C=C/C(=O)N2CCN(c3ccc(C(F)(F)F)cc3)CC2)c1)NO` [Example 91, (E)-N-Hydroxy-3-(3-{(E)-3-oxo-3-[4-(4-trifluoromethyl-phenyl)-piperazin-1-yl]-propenyl}-phenyl)-acrylamide hydrochloride], the half-maximal inhibitory concentration (IC50) in assay [1], in assay [2] and in assay [3] was 1000 to 3000 nM each time.

Regarding `O=C(/C=C/c1cccc(/C=C/C(=O)N2CCCC(c3ccccc3F)C2)n1)NO` (stereo not drawn) [Example 92, (E)-3-(6-{(E)-3-[3-(2-Fluoro-phenyl)-piperidin-1-yl]-3-oxo-propenyl}-pyridin-2-yl)-N-hydroxy-acrylamide hydrochloride], the IC50 in assay [1], in assay [2] and in assay [3] was ≤ 1000 nM throughout.

Take `O=C(/C=C/c1cccc(/C=C/C(=O)N2CCCC(c3cccc(F)c3)C2)n1)NO` (stereo not drawn) [Example 93, (E)-3-(6-{(E)-3-[3-(3-Fluoro-phenyl)-piperidin-1-yl]-3-oxo-propenyl}-pyridin-2-yl)-N-hydroxy-acrylamide hydrochloride]: the IC50 in assay [1], in assay [2] and in assay [3] was ≤ 1000 nM in each case.

Source of the values: patent US20110105474A1, “HETEROCYCLIC DERIVATIVES AS HDAC INHIBITORS” (DAC S.r.l., priority 2008, published 2011).
